Data reported in US8541342B2, “Fungicidal substance combinations” (Bayer Cropsciene AG, priority 2007, dated 2013).

Key:
Pyrenophora teres = Pyrenophora teres test (barley)/protective; details: protective spray on barley, evaluation 10 days after inoculation
Gibberella zeae = test: microbe, parasite or virus in culture; format: cell-based; details: Fusarium graminearum, 120 h, read-out: % efficacy

Cc1nn(C)c(F)c1C(=O)Nc1ccccc1C(C)CC(C)C (stereo not shown) [(I), N-[2-(1,3-Dimethylbutyl)phenyl]-5-fluoro-1,3-dimethyl-1H-pyrazole-4-carboxamide]
Efficacy in % found (Pyrenophora teres; 62.5 g/ha): 67%

COCC(=O)N(c1c(C)cccc1C)C(C)C(=O)OC (stereo not shown) [(III), Metalaxyl]
Efficacy in % found (Pyrenophora teres; 125 g/ha): 22%

CO/N=C(/C(=O)OC)c1ccccc1CO/N=C(\C)c1cccc(C(F)(F)F)c1 [Trifloxystrobin, trifloxystrobin]
Efficacy at 0.3 ppm (Gibberella zeae): 40% | Efficacy in % found (Pyrenophora teres; 62.5 g/ha): 78%
